Results from paper PMC3392440 (2012).

Legend:
[1] = molecular target: TlpB (Helicobacter pylori, UniProt B6JPK4, Y137F); experiment: colorimetric assay of co-purified urea; format: binding
[2] = molecular target: TlpB periplasmic domain, residues 33-211 (TlpBpp), H. pylori strain SS1 (Helicobacter pylori strain SS1); experiment: crystal structure
[3] = molecular target: TlpB (Helicobacter pylori, UniProt B6JPK4); experiment: crystal structure; format: binding

**Q.** How did the “% bound urea” value [1] turn out when NC(N)=O [urea] was run?
**A.** The value was 11 % bound urea.

**Q.** For “TlpB periplasmic domain, residues 33-211 (TlpBpp), H. pylori strain SS1 (domain or fragment)”, which stoichiometry N [2] is on record?
**A.** The stoichiometry N was 2.

**Q.** How did the “crystal structure (1.40 Å); CD thermal melt” value [3] turn out when CC(N)=O [acetamide] was run?
**A.** The value was “TlpBpp with acetamide bound is 3UB7”.
